Laboratory results taken from US8129371B2, “Thienopyrimidine and pyrazolopyrimidine compounds and their use as mTOR kinase and PI3 kinase inhibitors” (Wyeth LLC, priority 2007, dated 2012).

Key:
[1] = target: T1, Human mTOR (FLAG-TOR) (Homo sapiens, UniProt P42345); experiment: Human mTOR kinase assay with purified enzyme, DELFIA format; type: biochemical
T1 construct: FLAG
Procedure, shortened: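 DELFIA readout: Eu-anti-P(T389)-S6K antibody (40 ng/mL, 1 h) on captured His6-S6K from the stopped reaction. Kinase step used purified FLAG-tagged human mTOR with test compound in HEPES (pH 7.4)/MnCl2/DTT buffer, 2 h at room temperature (linear 1–6 h), terminated by EDTA/EGTA.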

[2] = target: T2, PI3K (Homo sapiens, UniProt P42336); experiment: Fluorescence polarization assay for PI3K; type: biochemical; conditions: PI3 Kinase α; read-out: PI3 Kinase α IC50
T2 construct: PI3 Kinase α IC50; other: PI3 Kinase α; other: PI3 Kinase α isoform, fluorescence polarization
Procedure, shortened: (§1)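 Fluorescence-polarization competition readout: after 30–60 min of PIP2/ATP turnover in 1% DMSO, a stop mix with GST-GRP (70 nM) and red probe (10 nM) was added.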

[3] = target: T3, PI3K (Homo sapiens, UniProt P48736); experiment: Fluorescence polarization assay for PI3K; type: biochemical; conditions: PI3 Kinase γ; read-out: PI3 Kinase γ IC50
T3 construct: PI3 Kinase γ IC50; other: PI3 Kinase γ; other: PI3 Kinase γ isoform, fluorescence polarization
Procedure, shortened: as §1

[4] = tested on: prostate line LNCap; experiment: In vitro cell culture growth assay (MTS), LNCap; type: cell-based; conditions: Homo sapiens, LNCaP, 72 h, LNCap cells, three days after drug treatment
Procedure, shortened: (§2)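 Plate cells; add inhibitors on day 1; after 3 days' treatment, add MTS; read A490; express as percent growth of vehicle-treated control.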

[5] = tested on: breast line MDA468; experiment: In vitro cell culture growth assay (MTS), MDA468; type: cell-based; conditions: Homo sapiens, 72 h, MDA468 cells, three days after drug treatment
Procedure, shortened: as §2

T2 sequence (P42336 whole entry, canonical isoform): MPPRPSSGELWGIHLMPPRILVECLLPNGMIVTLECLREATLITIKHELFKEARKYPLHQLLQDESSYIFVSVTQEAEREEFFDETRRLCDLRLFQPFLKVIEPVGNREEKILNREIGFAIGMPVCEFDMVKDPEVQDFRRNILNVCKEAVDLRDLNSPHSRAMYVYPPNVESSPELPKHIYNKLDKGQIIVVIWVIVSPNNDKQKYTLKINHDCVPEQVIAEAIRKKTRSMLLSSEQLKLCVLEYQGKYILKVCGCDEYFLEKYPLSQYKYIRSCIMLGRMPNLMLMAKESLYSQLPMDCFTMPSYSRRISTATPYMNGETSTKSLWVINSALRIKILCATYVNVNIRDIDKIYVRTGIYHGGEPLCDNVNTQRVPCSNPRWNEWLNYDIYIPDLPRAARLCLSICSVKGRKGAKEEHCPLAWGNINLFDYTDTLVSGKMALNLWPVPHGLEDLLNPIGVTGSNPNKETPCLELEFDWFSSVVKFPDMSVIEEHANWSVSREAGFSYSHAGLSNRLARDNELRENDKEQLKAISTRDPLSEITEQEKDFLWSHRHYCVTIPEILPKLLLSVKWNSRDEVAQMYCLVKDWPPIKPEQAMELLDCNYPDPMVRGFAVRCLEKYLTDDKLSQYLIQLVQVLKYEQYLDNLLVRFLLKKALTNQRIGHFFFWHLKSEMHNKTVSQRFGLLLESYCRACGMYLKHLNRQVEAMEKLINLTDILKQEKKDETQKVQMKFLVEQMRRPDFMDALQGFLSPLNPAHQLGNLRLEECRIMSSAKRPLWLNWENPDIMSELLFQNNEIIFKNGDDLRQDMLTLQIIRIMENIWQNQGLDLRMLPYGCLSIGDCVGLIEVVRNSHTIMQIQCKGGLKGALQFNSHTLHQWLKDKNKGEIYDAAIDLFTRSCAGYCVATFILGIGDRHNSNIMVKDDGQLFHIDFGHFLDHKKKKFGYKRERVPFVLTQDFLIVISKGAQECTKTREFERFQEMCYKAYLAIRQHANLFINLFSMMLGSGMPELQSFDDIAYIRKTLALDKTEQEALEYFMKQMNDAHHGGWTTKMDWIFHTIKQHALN
T3 sequence (P48736 whole entry, canonical isoform): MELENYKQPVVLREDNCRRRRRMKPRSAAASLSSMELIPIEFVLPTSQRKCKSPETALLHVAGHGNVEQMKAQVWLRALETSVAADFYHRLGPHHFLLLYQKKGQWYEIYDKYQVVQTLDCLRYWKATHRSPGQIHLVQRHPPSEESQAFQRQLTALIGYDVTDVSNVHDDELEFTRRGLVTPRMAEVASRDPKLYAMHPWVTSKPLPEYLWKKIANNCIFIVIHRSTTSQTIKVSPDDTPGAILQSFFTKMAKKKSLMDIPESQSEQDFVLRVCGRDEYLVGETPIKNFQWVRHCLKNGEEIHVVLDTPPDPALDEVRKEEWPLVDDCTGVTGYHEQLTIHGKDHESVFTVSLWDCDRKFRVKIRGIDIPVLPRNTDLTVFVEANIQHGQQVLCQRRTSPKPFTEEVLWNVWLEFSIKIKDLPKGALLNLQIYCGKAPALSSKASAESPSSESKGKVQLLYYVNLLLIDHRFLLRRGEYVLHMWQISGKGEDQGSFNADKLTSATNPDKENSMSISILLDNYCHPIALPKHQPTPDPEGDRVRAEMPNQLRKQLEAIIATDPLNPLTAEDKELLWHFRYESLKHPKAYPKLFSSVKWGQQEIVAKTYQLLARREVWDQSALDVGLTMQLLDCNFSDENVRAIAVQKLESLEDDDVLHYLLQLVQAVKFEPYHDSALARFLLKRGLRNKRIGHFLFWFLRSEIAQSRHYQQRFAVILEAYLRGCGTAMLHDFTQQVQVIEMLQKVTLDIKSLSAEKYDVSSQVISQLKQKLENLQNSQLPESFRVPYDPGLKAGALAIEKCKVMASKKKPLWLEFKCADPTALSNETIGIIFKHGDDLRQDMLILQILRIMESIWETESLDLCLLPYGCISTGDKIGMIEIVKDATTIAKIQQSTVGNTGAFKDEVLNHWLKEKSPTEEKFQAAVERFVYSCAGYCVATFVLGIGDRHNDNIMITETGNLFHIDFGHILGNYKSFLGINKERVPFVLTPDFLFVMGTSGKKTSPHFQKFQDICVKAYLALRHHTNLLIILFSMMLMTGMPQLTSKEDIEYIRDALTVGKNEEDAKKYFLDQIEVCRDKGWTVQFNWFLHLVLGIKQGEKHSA

IC50 [1]	IC50 [2]	IC50 [3]	IC50 [4]	SMILES	IC50 [5]
0.47 nM	2350 nM	> 10000 nM	27 nM	CCNC(=O)Nc1ccc(-c2nc(N3CC4CCC(C3)O4)c3cnn(C4CCN(C(=O)OC(C)(C)C)CC4)c3n2)cc1 [Example 20, tert-butyl4-[6-{4-[(ethylcarbamoyl)amino]phenyl}-4-(8-oxa-3-azabicyclo[3.2.1]oct-3-yl)-1H-pyrazolo[3,4-d]pyrimidin-1-yl]piperidine-1-carboxylate]	98 nM
0.24 nM	3960 nM	11000 nM	12 nM	CC(C)(C)OC(=O)N1CCC(n2ncc3c(N4CC5CCC(C4)O5)nc(-c4ccc(NC(=O)NCCF)cc4)nc32)CC1 [Example 21, tert-butyl 4-[6-(4-{[(2-fluoroethyl)carbamoyl]amino}phenyl)-4-(8-oxa-3-azabicyclo[3.2.1]oct-3-yl)-1H-pyrazolo[3,4-d]pyrimidin-1-yl]piperidine-1-carboxylate]	120 nM
0.56 nM	3850 nM	> 10000 nM	27 nM	CC(C)(C)OC(=O)N1CCC(n2ncc3c(N4CC5CCC(C4)O5)nc(-c4ccc(NC(=O)NC5CC5)cc4)nc32)CC1 [Example 22, tert-butyl 4-[6-{4-[(cyclopropylcarbamoyl)amino]phenyl}-4-(8-oxa-3-azabicyclo[3.2.1]oct-3-yl)-1H-pyrazolo[3,4-d]pyrimidin-1-yl]piperidine-1-carboxylate]	150 nM
0.7 nM	888 nM	> 10000 nM	40 nM	CC(C)(C)OC(=O)N1CCC(n2ncc3c(N4CC5CCC(C4)O5)nc(-c4ccc(NC(=O)Nc5ccccc5)cc4)nc32)CC1 [Example 23, tert-butyl 4-[4-(8-oxa-3-azabicyclo[3.2.1]oct-3-yl)-6-{4-[(phenylcarbamoyl)amino]phenyl}-1H-pyrazolo[3,4-d]pyrimidin-1-yl]piperidine-1-carboxylate]	180 nM
0.39 nM	629 nM	6300 nM	7 nM	CC(C)(C)OC(=O)N1CCC(n2ncc3c(N4CC5CCC(C4)O5)nc(-c4ccc(NC(=O)Nc5cccnc5)cc4)nc32)CC1 [Example 24, tert-butyl 4-[4-(8-oxa-3-azabicyclo[3.2.1]oct-3-yl)-6-{4-[(pyridin-3-ylcarbamoyl)amino]phenyl}-1H-pyrazolo[3,4-d]pyrimidin-1-yl]piperidine-1-carboxylate]	18 nM
0.47 nM	595 nM	1640 nM	38 nM	CC(C)(C)OC(=O)N1CCC(n2ncc3c(N4CC5CCC(C4)O5)nc(-c4ccc(NC(=O)Nc5ccncc5)cc4)nc32)CC1 [Example 25, tert-butyl 4-[4-(8-oxa-3-azabicyclo[3.2.1]oct-3-yl)-6-{4-[(pyridin-4-ylcarbamoyl)amino]phenyl}-1H-pyrazolo[3,4-d]pyrimidin-1-yl]piperidine-1-carboxylate]	70 nM
1.8 nM	2160 nM	9000 nM	790 nM	CCNC(=O)Nc1ccc(-c2nc(N3CC4CCC(C3)O4)c3cnn(C4CCNCC4)c3n2)cc1 [Example 28, 1-ethyl-3-{4-[4-(8-oxa-3-azabicyclo[3.2.1]oct-3-yl)-1-piperidin-4-yl-1H-pyrazolo[3,4-d]pyrimidin-6-yl]phenyl}urea]	1300 nM
0.36 nM	1890 nM	11000 nM	0.8 nM	CCNC(=O)Nc1ccc(-c2nc(N3CC4CCC(C3)O4)c3cnn(C4CCN(C(=O)OCC)CC4)c3n2)cc1 [Example 31, ethyl 4-[6-{4-[(ethylcarbamoyl)amino]phenyl}-4-(8-oxa-3-azabicyclo[3.2.1]oct-3-yl)-1H-pyrazolo[3,4-d]pyrimidin-1-yl]piperidine-1-carboxylate]	70 nM
0.33 nM	3320 nM	9500 nM	9 nM	CCOC(=O)N1CCC(n2ncc3c(N4CC5CCC(C4)O5)nc(-c4ccc(NC(=O)NCCF)cc4)nc32)CC1 [Example 32, ethyl 4-[6-(4-{[(2-fluoroethyl)carbamoyl]amino}phenyl)-4-(8-oxa-3-azabicyclo[3.2.1]oct-3-yl)-1H-pyrazolo[3,4-d]pyrimidin-1-yl]piperidine-1-carboxylate]	210 nM

Second part, the compound before the results:

SMILES	IC50 [1]	IC50 [2]	IC50 [3]	IC50 [4]	IC50 [5]
O=C(Nc1ccncc1)Nc1ccc(-c2nc(N3CC4CCC(C3)O4)c3cnn(C4CCN(Cc5cccnc5)CC4)c3n2)cc1 [Example 19, 1-(4-{4-(8-oxa-3-azabicyclo[3.2.1]oct-3-yl)-1-[1-(pyridin-3-ylmethyl)piperidin-4-yl]-1H-pyrazolo[3,4-d]pyrimidin-6-yl}phenyl)-3-pyridin-4-ylurea]	0.14 nM	223 nM	391 nM	< 0.8 nM	< 0.8 nM
CNC(=O)Nc1ccc(-c2nc(N3CC4CCC(C3)O4)c3cnn(C4CCN(CC(F)(F)F)CC4)c3n2)cc1 [Example 26, 1-methyl-3-(4-{4-(8-oxa-3-azabicyclo[3.2.1]oct-3-yl)-1-[1-(2,2,2-trifluoroethyl)piperidin-4-yl]-1H-pyrazolo[3,4-d]pyrimidin-6-yl}phenyl)urea]	1.1 nM	1280 nM	> 10000 nM	27 nM	190 nM
CNC(=O)Nc1ccc(-c2nc(N3CC4CCC(C3)O4)c3cnn(C4CCN(Cc5cccnc5)CC4)c3n2)cc1 [Example 27, 1-methyl-3-(4-{4-(8-oxa-3-azabicyclo[3.2.1]oct-3-yl)-1-[1-(pyridin-3-ylmethyl)piperidin-4-yl]-1H-pyrazolo[3,4-d]pyrimidin-6-yl}phenyl)urea]	0.47 nM	677 nM	> 10000 nM	0.8 nM	27 nM
O=C(Nc1ccccc1)Nc1ccc(-c2nc(N3CC4CCC(C3)O4)c3cnn(C4CCNCC4)c3n2)cc1 [Example 29, 1-{4-[4-(8-oxa-3-azabicyclo[3.2.1]oct-3-yl)-1-piperidin-4-yl-1H-pyrazolo[3,4-d]pyrimidin-6-yl]phenyl}-3-phenylurea]	2.3 nM	273 nM	2310 nM	100 nM	280 nM
Oc1ccc(Nc2nc(N3CC4CCC(C3)O4)c3cnn(C4CCN(Cc5ccccc5)CC4)c3n2)cc1 [Example 30, 4-{[1-(1-benzylpiperidin-4-yl)-4-(8-oxa-3-azabicyclo[3.2.1]oct-3-yl)-1H-pyrazolo[3,4-d]pyrimidin-6-yl]amino}phenol]	260 nM	2450 nM	> 10000 nM	2800 nM	7600 nM
CCOC(=O)N1CCC(n2ncc3c(N4CC5CCC(C4)O5)nc(-c4ccc(NC(=O)Nc5ccccc5)cc4)nc32)CC1 [Example 33, ethyl 4-[4-(8-oxa-3-azabicyclo[3.2.1]oct-3-yl)-6-{4-[(phenylcarbamoyl)amino]phenyl}-1H-pyrazolo[3,4-d]pyrimidin-1-yl]piperidine-1-carboxylate]	0.36 nM	215 nM	4280 nM	0.9 nM	18 nM
